Test results published in article PMC10046901, “Molecular Analysis of the Superior Efficacy of a Dual Epidermal Growth Factor Receptor (EGFR)-DNA-Targeting Combi-Molecule in Comparison with Its Putative Prodrugs 6-Mono-Alkylamino- and 6,6-Dialkylaminoquinazoline in a Human Osteosarcoma Xenograft Model” (Cells, 2023).

Experiment: Plasma and tumor metabolism by LC-MS and LC-MS/MS
Format: in vivo, NSG male mice
Conditions: 3 h after administration; for in vivo metabolism of administered drug (LC-MS): tumor and plasma; for in vivo metabolism of administered drug (LC-MS) / concentration of released ZR2002 in treated tumors relative to ZR2002-treated tumors: 80 mg/kg oral; for concentration of released ZR2002 in treated tumors relative to ZR2002-treated tumors: tumor, N = 4
Protocol: In order to study the drug pharmacokinetics, 1 last dose (the 11th dose) was administered 3 h prior to sacrifice and after a break of 5 days from the previous drug administration.
At the end of the study, the mice were sacrificed, and the plasma and tumors were collected. The plasma was stored at −80 °C, and the tumor tissues were transversely cut into 2 parts: 1 was immediately frozen in liquid nitrogen and stored at −80 °C for Western blots and LC-MS analysis; the other was fixed in 4% paraformaldehyde and used for histology.
Individual stock solutions of ZR2002 and Nitro-RB10 (IS) were prepared in DMSO at 10 mg/mL and, after, in MeOH at a concentration of 100 μg/mL. Intermediate dilutions were prepared using ACN:water (35:65, v:v). All stock and working solutions were stored at −20 °C and brought to room temperature before use.
The dynamic range for the calibration curve ranged from 0.4 to 150 ng/mL, including 0.4, 1, 5, 10, 50, 80, 100 and 150 ng/mL in plasma and tumor matrix. These standards were prepared by spiking an appropriate volume of a standard spiking solution into the blank extracted plasma or tumor and vortexing. A total of 3 levels of QC samples were run during the analysis, including a low QC of 1 ng/mL, a mid QC of 10 ng/mL and a high QC of 100 ng/mL. These QC samples were prepared by spiking an appropriate volume of the spiking solution into the matrix blank. An appropriate volume of the IS spiking solution was then spiked into the calibration standards and QC samples to generate a final IS concentration of 15 ng/mL in the matrix. All samples were vortexed gently, completing the sample preparation process.
An amount of 50 μL of each plasma sample was deproteinized with 200 µL of cold ACN. The samples were mixed for 10 s, shaken automatically for 10 min and centrifuged for 10 min at 15,000 rpm (21,130 rcf) at 4 °C. After centrifugation, the supernatants were loaded into Captiva-Enhanced Matrix Removal (EMR)-Lipid cartridges (1.0 mL; 40 mg; Agilent, Santa Clara, CA, USA) and settled for 5 min. The supernatants were eluted by applying a positive pressure (2 psi for 2 min) using a positive pressure manifold (PPM 96 processor, Agilent Techn.). The cartridges were washed with ACN:water (8:2, v:v) 100 μL, at 2–4 psi for 2 min, followed by a 1-min period of high pressure (6–9 psi) to drain the cartridges. The elutes were transferred to new tubes and dried under vacuum using a Centrivap sample concentrator (Centrivap Complete^TM, Labconco Corporation, Kansas City, MO, USA) at room temperature. The dried samples were stored at −20 °C before LC-MS analysis. On the day of analysis, the samples were reconstituted in 100 µL of MeOH, vortexed for 10 s, sonicated for 5 min (sonic bath, Symphony, VWR International, Radnor, PA, USA) and centrifuged for 5 min at 15,000 rpm. The supernatants were diluted 60 times in 35% ACN, and an appropriate volume of the IS spiking solution was then spiked into the samples to generate a final IS concentration of 15 ng/mL. At the end of the process, all samples were diluted 120 times. These final solutions were transferred to autosampler vials (350 µL, Thermo Fisher Scientific, Waltham, MA, USA), and 10 µL of each was injected into the LC-MS system.
A weighted piece of tumor was crushed in a mortar with liquid nitrogen. To the tumor powder, 150 μL of water was added before deproteinizing the mixture with 600 µL of cold ACN. The samples were mixed for 10s, sonicated with ice in a sonication bath for 30 min to 1 h (Sonicate bath, VWR, International, Radnor, PA, USA) and centrifuged for 10 min at 15,000 rpm (21,130 rcf) at 4 °C (Centrifuge 5424 R, Eppendorf). After centrifugation, the supernatants were loaded into Captiva-Enhanced Matrix Removal (EMR)-Lipid cartridges (1.0 mL; 40 mg; Agilent) and settled for 5 min. The supernatants were eluted by applying a positive pressure (2 psi for 2 min) using a positive pressure manifold (PPM 96 processor, Agilent Techn.). […]

**Q.** Which “in vivo metabolism of administered drug (LC-MS)” value (“in vivo metabolism” below) does the source give for `ClCCN(CCCl)c1ccc2ncnc(Nc3cccc(Br)c3)c2c1` [JS61] here?
**A.** remained largely intact

**Q.** What about the “concentration of released ZR2002 in treated tumors relative to ZR2002-treated tumors” value of the same compound?
**A.** five times lower

**Q.** For `CN(CCCl)c1ccc2ncnc(Nc3cccc(Br)c3)c2c1` [JS84], which “in vivo metabolism” value is on record?
**A.** partially intact and largely converted into RB10-Methyl (peak 7), RB10 (1) and RB10-N-Acetyl (2)

**Q.** And the “concentration of released ZR2002 in treated tumors relative to ZR2002-treated tumors” value?
**A.** five times lower

**Q.** What about the “concentrations of ZR2002 metabolite in treated tumors and plasma vs ZR2002-treated” value (tumors and plasma) of the same compound?
**A.** significantly lower

**Q.** For `ClCCNc1ccc2ncnc(Nc3cccc(Br)c3)c2c1` [ZR2002], which “in vivo metabolism” value is on record?
**A.** partially metabolized into its deschloroethyl metabolite “RB10” (peak 1) and RB10-N-acetyl (peak 2)
